Consider 40 compounds from ChEMBL document CHEMBL5107980, “Seeking heterocyclic scaffolds as antivirals against dengue virus” (Eur J Med Chem, 2022).

≈ marks a conversion by molar mass, not a printed value. A value given as a limit tells only on which side of the number the result lay.

A word on the IC50: it is the concentration that gives 50% inhibition. Broadly, the inhibition is the percentage by which the read-out fell short of the control. Usually EC50 stands for the concentration that produces a half-maximal response. The CC50 is the concentration giving 50% cytotoxicity. In general, EC90 refers to the point of the concentration-response curve where the effect stands at 90%. In general, LC50 refers to the concentration lethal to half of the exposed cells or organisms.

A short description of data set [1]: Inhibition of DENV-2 NS5 RdRp polymerase expressed in Escherichia coli Rosetta2(DE3) measured after 1 hr by [alpha-32P]UTP-labeled radio-probe based scintillation counter analysis. Set-up: species or system dengue virus type 2.
Data set [2] deals with Genome polyprotein (dengue virus type 2, UniProt P29990). Description: Inhibition of DENV2 NS2B-NS3 protease using Bz-Nle-Lys-Arg-Arg-AMC as substrate measured after 30 mins by spectrofluorometer analysis.
In data set [3] the target is Genome polyprotein (dengue virus type 2) (UniProt P29990). Kind of data set: Inhibition of DENV2 NS2B-NS3 protease at 50 uM using Bz-Nle-Lys-Arg-Arg-AMC as substrate measured after 30 mins by spectrofluorometer analysis relative to control.
Data set [4] has as its system dengue virus type 2. Description: Antiviral activity against DENV2. Format: functional, organism-based.
Data set [5] has as its target Genome polyprotein (dengue virus type 2) (UniProt P29990). Description: Inhibition of DENV2 NS2B-NS3 protease at 50 uM using Bz-Nle-Lys-Arg-Arg-AMC as substrate by spectrofluorometer analysis relative to control.
The test system of data set [6] is Aedes aegypti. Description: Larvicidal activity against Aedes aegypti assessed as mortality rate at 5 ug per mosquito measured after 24 hrs relative to control. Format: functional. The following applies: dose 5 µg.
Data set [7] relates to dengue virus type 4. Kind of data set: Antiviral activity against DENV4 infected in hamster BHK-21 cells assessed as inhibition of virus induced cytopathic effect incubated for 45 mins by focus-formation assay. Format: functional, organism-based. Conditions: BHK-21, 0.75 h.
The test system of data set [8] is Dengue virus. Kind of data set: Antiviral activity against DENV. Format: functional, organism-based.
Data set [9] relates to dengue virus type 3. Kind of data set: Antiviral activity against DENV3 infected in African green monkey Vero cells assessed as inhibition of virus induced cytopathic effect incubated for 45 mins by focus-formation assay. Format: functional, organism-based. The following applies: 0.75 h.
Data set [10] is described as follows: Selectivity Index, ratio of CC50 for hamster BHK-21 cells to EC50 for antiviral activity against DENV2 infected in asian tiger mosquito C6/36 cells. The following applies: BHK-21 cells (CC50) and DENV2-infected C6/36 cells (EC50). Format: toxicity.
The nature of data set [11]: Cytotoxicity against hamster BHK-21 cells assessed as cell growth inhibition after 48 hrs by MTT assay. Format: toxicity, cell-based, Mesocricetus auratus.
Data set [12] relates to dengue virus type 2. Description: Antiviral activity against DENV2 infected in asian tiger mosquito C6/36 cells assessed as inhibition of virus induced cytopathic effect measured after 96 hrs by methylene blue staining based microscopic analysis. Format: functional, organism-based. The following applies: C6/36, 96 h. (In general: Damage to the host cells serves as the signal in cytopathic effect assays.)

Data set [13] deals with Aedes aegypti. Kind of data set: Larvicidal activity against Aedes aegypti assessed as lethal dose per mosquito measured for 24 hrs. Format: functional.
In data set [14] the test system is dengue virus type 2. Description: Antiviral activity against DENV2 infected in hamster BHK-21 cells assessed as inhibition of virus induced cytopathic effect incubated for 45 mins by plaque formation assay. Conditions: BHK-21, 0.75 h. Format: functional, organism-based.
For data set [15], the system named is Aedes aegypti. Description: Larvicidal activity against Aedes aegypti assessed as mortality measured upto 48 hrs. The following applies: for LC50: Aedes aegypti. Format: functional.
A short description of data set [16]: Cytotoxicity against African green monkey Vero cells assessed as cell growth inhibition after 48 hrs by MTT assay. Conditions: chlorocebus sabaeus. Format: toxicity, cell-based. (Tetrazolium dyes change colour on reduction, which living cells bring about.)
Data set [17] relates to dengue virus type 2. Kind of data set: Antiviral activity against DENV2 infected in African green monkey Vero cells assessed as inhibition of viral replication measured after 48 hrs by RT-PCR analysis. Format: functional, organism-based.
Data set [18] is described as follows: Selectivity Index, ratio of CC50 for African green monkey Vero cells to EC50 for antiviral activity against DENV2 infected in African green monkey Vero cells. Format: toxicity. Conditions: Vero cells (CC50) and DENV2-infected Vero cells (EC50).
For data set [19], the system named is dengue virus type 1. Description: Antiviral activity against DENV1 infected in hamster BHK-21 cells assessed as inhibition of virus induced cytopathic effect incubated for 45 mins by focus-formation assay. Format: functional, organism-based. Conditions: BHK-21, 0.75 h.
Data set [20] in a line: Inhibition of DENV4 (MY01-22713) RdRP expressed in Escherichia coli Rosetta2(DE3) incubated for 180 mins in presence of ATP,GTP,and UTP by scintillation counter analysis. Set-up: species or system dengue virus type 4.
A short description of data set [21]: Inhibition of DENV1 (US/Hawaii/1944) RdRP expressed in Escherichia coli Rosetta2(DE3) incubated for 180 mins in presence of ATP,GTP,and UTP by scintillation counter analysis. Details: species or system dengue virus type 1.
Data set [22] can be described thus: Inhibition of DENV3 (MY00-22366) RdRP expressed in Escherichia coli Rosetta2(DE3) incubated for 180 mins in presence of ATP,GTP,and UTP by scintillation counter analysis. Set-up: species or system dengue virus type 3.
Data set [23] has as its system dengue virus type 2. Description: Antiviral activity against DENV2 infected in hamster BHK-21 cells assessed as inhibition of virus induced cytopathic effect by viral tox-glo assay. Format: functional, organism-based.
Data set [24] concerns dengue virus type 1. Description: Antiviral activity against DENV1 infected in hamster BHK-21 cells assessed as inhibition of virus induced cytopathic effect by viral tox-glo assay. Format: functional, organism-based.
The test system of data set [25] is dengue virus type 4. Kind of data set: Antiviral activity against DENV4 infected in hamster BHK-21 cells assessed as inhibition of virus induced cytopathic effect by viral tox-glo assay. Format: functional, organism-based.
The subject of data set [26] is dengue virus type 3. Description: Antiviral activity against DENV3 infected in hamster BHK-21 cells assessed as inhibition of virus induced cytopathic effect by viral tox-glo assay. Format: functional, organism-based.
Data set [27] can be described thus: Inhibition of DENV2 His6-tagged recombinant NGC RdRP expressed in Escherichia coli Rosetta2(DE3) measured after 180 mins in presence of NTP by scintillation counter analysis. Set-up: species or system dengue virus type 2.

In the case of `O=C1N/C(=N\c2nnc(-c3cccc(F)c3)s2)S/C1=C\c1cccc(F)c1`, the midpoint of inhibition in data set [1], the IC50, lay at 2.3 µM.

In data set [2], `Cc1ccc(S(=O)(=O)Nc2ccc(-c3nnc(SCc4ccccc4C(F)(F)F)o3)cc2)cc1` displayed an IC50 of 24 µM. The same compound came in with an inhibition in data set [3] of 80.8%.

In turn, `CC(C)(C)[Si](C)(C)Oc1ccc(C2N(Nc3ccc([N+](=O)[O-])cc3)C(=O)[C@@H]3Cc4ccccc4N23)cc1` (stereo not given in full) yielded a concentration giving a half-maximal response (EC50) in data set [4] of 4.79 µM.

In data set [5], `Cc1cc([N+](=O)[O-])ccc1-n1sc2ccccc2c1=O` came in with an inhibition of 92%.

Compound `O=c1c2ccccc2sn1-c1c(Cl)cccc1Cl` had an inhibition in [5] of 94%.

For `CS(=O)(=O)N1CCN(c2nnc(-c3ccc(F)cc3)o2)C1=O`, the Activity in data set [6] came out at 70%.

With `FC(F)(F)Oc1ccccc1Nc1nccc(Nc2ccc(C(F)(F)F)cc2)n1`, the half-inhibitory concentration (IC50) in data set [7] amounted to 5 µM.

In data set [8], `COc1cccc(Nc2ccnc3ccc(C(F)(F)F)cc23)c1` registered a concentration giving a half-maximal response (EC50) of 0.82 µM.

Take `FC(F)(F)Oc1cccc(Nc2ccnc(Nc3cccc(OC(F)(F)F)c3)n2)c1`: the half-inhibitory concentration (IC50) in data set [9] was 5 µM.

The compound `O=c1c2ccccc2sn1-c1ccccc1Cl` showed an inhibition in data set [5] of 94%.

The compound `O=c1c2ccccc2sn1-c1ccccc1[N+](=O)[O-]` yielded an inhibition in data set [5] of 72%.

Regarding `Cc1ccc(-c2nc3nc4c(c(N5CCN(Cc6ccc7c(c6)OCO7)CC5)n3n2)CCC4)cc1`, the selectivity ratio in data set [10] worked out at 14.7. Also, the CC50 at 48 h in data set [11] came out at 66 µM. The EC50 in [12] was found to be 4.5 µM.

As for `CS(=O)(=O)N1CCN(c2nnc(-c3ccc(Cl)cc3Cl)o2)C1=O`, the LD50 in data set [13] stood at 2.39 µg. Moreover, the Activity in data set [6] is listed as 86.7%.

`Oc1cccc(Nc2ccnc3ccc(Br)cc23)c1` registered an EC50 in data set [8] of 0.63 µM.

In the case of `CNc1cccc(Nc2ccnc3ccc(Br)cc23)c1`, the response in data set [8] was half-maximal at 0.24 µM (EC50).

Turning to `O=C1N/C(=N\c2nnc(-c3cccnc3)s2)S/C1=C\c1cccc(F)c1`, in [1], the half-inhibitory concentration (IC50) worked out at 5.5 µM.

As for `Fc1cc2cn[nH]c2cc1Nc1ccnc2ccc(Br)cc12`, in [8], the EC50 was determined as 0.69 µM and the concentration for an effect of 90% (EC90) amounted to 4 µM.

In [2], `O=C1c2ccccc2C(=O)N1CCCSc1nnc(-c2ccc(NS(=O)(=O)c3ccc(C(F)(F)F)cc3)cc2)o1` returned an IC50 of 13.9 µM. The compound also yielded an inhibition in data set [3] of 99.9%.

`O=c1c2ccccc2sn1-c1ccccc1O` showed an inhibition in data set [5] of 89%.

Compound `O=C1N/C(=N\c2nnc(-c3cccc(F)c3)s2)S/C1=C\c1c(Cl)cccc1Cl` yielded an IC50 in data set [1] of 5.8 µM.

As for `Cc1cc(OC(F)(F)F)ccc1Nc1ccnc(Nc2ccccc2OC(F)(F)F)n1`, the IC50 in data set [14] was 5 µM.

As for `CS(=O)(=O)N1CCN(c2nnc(-c3ccc(Br)cc3)o2)C1=O`, the LD50 in [13] worked out at 3.55 µg. The Activity in data set [6] was 86.7%.

Regarding `O=C1N/C(=N\c2nnc(-c3ccccc3Cl)s2)S/C1=C\c1cccc(F)c1`, the IC50 in data set [1] was 2.1 µM.

Consider `Cc1[nH]c2c(C(=O)O)cccc2c1C`, for which, in data set [15], the LC90 was greater than 528.51 µM and the LC50 is greater than 854 µM.

Take `CS(=O)(=O)N1CCN(c2nnc(-c3ccccc3)o2)C1=O`: the Activity in data set [6] was 73.3%.

In the case of `Cc1ccc(S(=O)(=O)Nc2ccc(-c3nnc(SCc4ccc(C(F)(F)F)cc4)o3)cc2)cc1`, 25.2 µM corresponded to half-maximal inhibition in data set [2] (IC50). The inhibition in data set [3] was 83.9%.

On to `O=c1c2ccccc2sn1-c1ccc(Br)cc1`, for which, in data set [5], the inhibition came out at 80%.

Regarding `CC(C)CC(=O)c1c(O)c2c(c3c(-c4ccccc4)cc(=O)oc13)OC(C)(C)C=C2` [ISOMAMMEIGIN], the CC50 at 48 h in [16] turned out to be 3150 µg/mL (≈ 7790 µM). The EC50 in data set [17] was 9.6 µg/mL (≈ 23.7 µM). Also, the selectivity ratio in data set [18] turned out to be 328.

Turning to `CCCc1cc(=O)oc2c(C(=O)CC(C)C)c(O)c(CC=C(C)C)c(O)c12`, the CC50 at 48 h in [16] was determined as 550 µg/mL (≈ 1480 µM). Further, in data set [17], the EC50 came out at 2.6 µg/mL (≈ 6.98 µM). In data set [18], the selectivity ratio is 212.

For the compound `Cc1ccc(S(=O)(=O)Nc2ccc(-c3nnc(SCc4cccc(C(F)(F)F)c4)o3)cc2)cc1`, in [2], the IC50 is 23.9 µM. The same compound displayed an inhibition in [3] of 80.4%.

As to `O=C1N/C(=N\c2nnc(-c3ccccc3F)s2)S/C1=C\c1cccc(F)c1`, inhibition in data set [1] was half-maximal at 7.2 µM (IC50).

The compound `O=C1c2ccccc2C(=O)N1CCCCSc1nnc(-c2ccc(NS(=O)(=O)c3ccc(C(F)(F)F)cc3)cc2)o1` came in with an IC50 in [2] of 15.1 µM. Also, the inhibition in data set [3] was found to be 77.6%.

`FC(F)(F)Oc1ccc(Nc2ccnc(Nc3cccc(OC(F)(F)F)c3)n2)cc1`: the half-inhibitory concentration (IC50) in data set [19] is 4 µM.

Take `OCCN1CCN(c2nccc(Nc3ccc(-c4ccccc4)cc3)n2)CC1`: in data set [15], the LC90 turned out to be 30.13 µM and the median lethal concentration (LC50) amounted to 19.9 µM.

With `FC(F)(F)Oc1ccc(Nc2ccnc(Nc3ccccc3OC(F)(F)F)n2)cc1`, the IC50 in data set [14] turned out to be 5 µM.

Take `O=C1N=Cc2ccc(Nc3ccnc4ccc(Br)cc34)cc21`: in data set [8], the EC50 was 0.64 µM and the 90% effect concentration (EC90) was found to be 1.5 µM.

For `Cc1[nH]c2ccc(Br)cc2c1C`, in data set [15], the LC90 was found to be 14.74 µM and the 50% lethal concentration (LC50) was 10.6 µM.

With `FC(F)(F)Oc1cccc(Nc2nccc(Nc3ccc(C(F)(F)F)cc3)n2)c1`, the 50% inhibitory concentration (IC50) in data set [14] was determined as 5 µM.

For the compound `COc1ccc([C@@H]2N(Nc3ccc([N+](=O)[O-])cc3)C(=O)[C@@H]3Cc4ccccc4N23)cc1OC`, a half-maximal effect in data set [4] (EC50) was put at 9.35 µM.

Regarding `O=C(NO)c1ncc(CS(=O)(=O)c2ccccc2)c(CO)c1O`, the IC50 came out at 5 µM in data set [20], 5.7 µM in [21], 6.7 µM in [22] and 6 µM in data set [27]. Further, the half-maximal effective concentration (EC50) was 2.8 µM in data set [23], 2.7 µM in data set [24], 2.2 µM in [25] and 2.7 µM in data set [26].
